The source of these data is US10519169B2, “3-(1H-pyrrolo[2,3-C]pyridin-2-yl)-1 H-pyrazolo[4,3-B]pyridines and therapeutic uses thereof” (Samumed, LLC, priority 2015, dated 2019).

For experiment [1], the system named is Wnt activity (Sp5-Luc reporter, TCF/LEF binding sites) in SW480 colon carcinoma cells. Kind of experiment: Wnt activity screening assay, Sp5-Luc reporter gene in SW480 cells. Format: cell-based. Particulars: Homo sapiens; for EC50: overnight incubation; for inhibition at 10 µM: given for EC50 >10 μM, read-out: percent inhibition at 10 μM. The text has this:
The screening assay for Wnt activity is described as follows. Reporter cell lines can be generated by stably transducing cancer cell lines (e.g., colon cancer) or primary cells (e.g., IEC-6 intestinal cells) with a lentiviral construct that includes a Wnt-responsive promoter driving expression of the firefly luciferase gene.
SW480 colon carcinoma cells were transduced with a lentiviral vector expressing luciferase with a human Sp5 promoter consisting of a sequence of eight TCF/LEF binding sites. SW480 cells stably expressing the Sp5-Luc reporter gene and a hygromycin resistance gene were selected by treatment with 150 μg/mL of hygromycin for 7 days. These stably transduced SW480 cells were expanded in cell culture and used for all further screening activities. Each compound was dissolved in DMSO as a 10 mM stock and used to prepare compound source plates. Serial dilution (1:3, 10-point dose-response curves starting from 10 μM) and compound transfer was performed using the ECHO 550 (Labcyte, Sunnyvale, Calif.) into 384-well white solid bottom assay plates (Greiner Bio-One) with appropriate DMSO backfill for a final DMSO concentration of 0.1%. For Sp5-Luc reporter gene assays, the cells were plated at 4,000 cells/well in 384-well plates with medium containing 1% fetal bovine serum and incubated overnight at 37° C. and 5% CO2. Following incubation, 20 μl of BrightGlo luminescence reagent (Promega) was added to each well of the 384-well assay plates. The plates were placed on an orbital shaker for 2 min and then luminescence was quantified using the Envision (Perkin Elmer) plate reader. Readings were normalized to DMSO only treated cells, and normalized activities were utilized for EC50 calculations using the dose-response log (inhibitor) vs. response-variable slope (four parameters) nonlinear regression feature available in GraphPad Prism 5.0 (or Dotmatics). For EC50 of >10 μM, the percent inhibition at 10 μM is provided.

Experiment [2] concerns primary human fibroblasts derived from IPF patients (LL29 cells) treated with TGF-β1. Kind of experiment: Inhibition of fibrotic process, αSMA staining in TGF-β1 treated LL29 fibroblasts. Particulars: Fibroblast; for EC50: 96 h, TGF-β1 20 ng/mL, 4 days, % cells positive for αSMA; for inhibition at 10 µM: given for EC50 >10 μM, TGF-β1, αSMA, read-out: percent inhibition at 10 μM. It counts as cell-based. The source says:
Representative compounds were screened using primary human fibroblasts (derived from IPF patients) treated with TGF-β1 to determine their ability to inhibit the fibrotic process.
Primary human fibroblasts derived from IPF patients (LL29 cells) [^1Xiaoqiu Liu, et. al., “Fibrotic Lung Fibroblasts Show Blunted Inhibition by cAMP Due to Deficient cAMP Response Element-Binding Protein Phosphorylation”, Journal of Pharmacology and Experimental Therapeutics (2005), 315(2), 678-687; ^2Watts, K. L., et. al., “RhoA signaling modulates cyclin D1 expression in human lung fibroblasts; implications for idiopathic pulmonary fibrosis”, Respiratory Research (2006), 7(1), 88] were obtained from American Type Culture Collection (ATCC) and expanded in F12 medium supplemented with 15% Fetal Bovine Serum and Penicillin/Streptomycin.
Each compound was dissolved in DMSO as a 10 mM stock and used to prepare compound source plates. Serial dilution (1:2, 11-point dose-response curves from […] to […]) and compound transfer was performed using the ECHO 550 (Labcyte, Sunnyvale, Calif.) into 384-well clear bottom assay plates (Greiner Bio-One) with appropriate DMSO backfill for a final DMSO concentration of 0.1%. LL29 cells are plated at 1,500 cells/well in 80 μL/well F12 medium supplemented with 1% Fetal Bovine Serum. One hour after addition of the cells, TGF-β1 (Peprotech; 20 ng/mL) was added to the plates to induce fibrosis (ref. 1 and 2 above). Wells treated with TGF-β1 and containing DMSO were used as controls. Cells were incubated at 37° C. and 5% CO2 for 4 days. Following incubation for 4 days, SYTOX green nucleic acid stain (Life Technologies [Thermo Fisher Scientific]) was added to the wells at a final concentration of 1 μM and incubated at room temperature for 30 min. Cells were then fixed using 4% formaldehyde (Electron Microscopy Sciences), washed 3 times with PBS followed by blocking and permeabilization using 3% Bovine Serum Albumin (BSA; Sigma) and 0.3% Triton X-100 (Sigma) in PBS. Cells were then stained with antibody specific to α-smooth muscle actin (aSMA; Abcam) (ref. 1 and 2 above) in 3% Bovine Serum Albumin (BSA; Sigma) and 0.3% Triton X-100 (Sigma) in PBS, and incubated overnight at 4° C. Cells were then washed 3 times with PBS, followed by incubation with Alexa Flor-647 conjugated secondary antibody (Life Technologies [Thermo Fisher Scientific]) and DAPI at room temperature for 1 hour. Cells were then washed 3 times with PBS and plates were sealed for imaging. aSMA staining was imaged by excitation at 630 nm and emission at 665 nm and quantified using the Compartmental Analysis program on the CellInsight CX5 (Thermo Scientific). Dead or apoptotic cells were excluded from analysis based on positive SYTOX green staining. % of total cells positive for aSMA were counted in each well and normalized to the average of 11 wells treated with TGF-β1 on the same plate using Dotmatics' Studies Software. The normalized averages (fold change over untreated) of 3 replicate wells for each compound concentration were used to create dose-responses curves and EC50 values were calculated using non-linear regression curve fit in the Dotmatics' Studies Software. For EC50 of >10 μM, the percent inhibition at 10 μM is provided.

Where only a bound is given, the exact number is not on record here.

With `Fc1ccccc1-c1cncc2[nH]c(-c3n[nH]c4ccc(-c5cn[nH]c5)nc34)cc12` [Compound 539, 3-(4-(2-Fluorophenyl)-1H-pyrrolo[2,3-c]pyridin-2-yl)-5-(1H-pyrazol-4-yl)-1H-pyrazolo[4,3-b]pyridine], the EC50 (usually the concentration that produces a half-maximal response) in experiment [1] stood at 1.2 µM; in experiment [2], 2.31 µM.

`Fc1cccc(-c2cncc3[nH]c(-c4n[nH]c5ccc(-c6cccnc6)nc45)cc23)c1` [Compound 4, 3-(4-(3-Fluorophenyl)-1H-pyrrolo[2,3-c]pyridin-2-yl)-5-(pyridin-3-yl)-1H-pyrazolo[4,3-b]pyridine]: the EC50 in experiment [1] came out at 0.255 µM; in experiment [2] it was 0.272 µM.

Consider `Fc1cccc(-c2cncc3[nH]c(-c4n[nH]c5ccc(C6CCNCC6)nc45)cc23)c1` [Compound 505, 3-(4-(3-Fluorophenyl)-1H-pyrrolo[2,3-c]pyridin-2-yl)-5-(piperidin-4-yl)-1H-pyrazolo[4,3-b]pyridine], for which, in experiment [1], the inhibition (usually the change of the read-out against control, counted positive when it falls) at 10 µM amounted to 32.9% and the EC50 was above 10 µM. Also, in experiment [2], the EC50 was above 10 µM and the inhibition at 10 µM was found to be 0%.

Turning to `CN(C)c1cncc(-c2ccc3[nH]nc(-c4cc5c(-c6cccc(F)c6)cncc5[nH]4)c3n2)c1` [Compound 7, 5-(3-(4-(3-Fluorophenyl)-1H-pyrrolo[2,3-c]pyridin-2-yl)-1H-pyrazolo[4,3-b]pyridin-5-yl)-N,N-dimethylpyridin-3-amine], the EC50 in experiment [1] is 0.516 µM; in experiment [2], 0.45 µM.

In the case of `Nc1cncc(-c2ccc3[nH]nc(-c4cc5c(-c6ccncc6)cncc5[nH]4)c3n2)c1` [Compound 115, 5-(3-(4-(Pyridin-4-yl)-1H-pyrrolo[2,3-c]pyridin-2-yl)-1H-pyrazolo[4,3-b]pyridin-5-yl)pyridin-3-amine], in experiment [1], the inhibition at 10 µM was 30.1% and the EC50 is above 10 µM. In experiment [2], this compound displayed an EC50 of 6.65 µM.

Turning to `CS(=O)(=O)NCc1cc(F)cc(-c2cncc3[nH]c(-c4n[nH]c5ccc(-c6cncc(CN7CCCCC7)c6)nc45)cc23)c1` [Compound 491, N-(3-Fluoro-5-(2-(5-(5-(piperidin-1-ylmethyl)pyridin-3-yl)-1H-pyrazolo[4,3-b]pyridin-3-yl)-1H-pyrrolo[2,3-c]pyridin-4-yl)benzyl)methanesulfonamide], the values for the concentration giving a half-maximal response (EC50) in experiment [1] and in experiment [2] were 1.3 µM and 1.22 µM, respectively.

As for `Cc1ccncc1-c1ccc2[nH]nc(-c3cc4c(-c5cc(F)cc(CNS(C)(=O)=O)c5)cncc4[nH]3)c2n1` [Compound 481, N-(3-Fluoro-5-(2-(5-(4-methylpyridin-3-yl)-1H-pyrazolo[4,3-b]pyridin-3-yl)-1H-pyrrolo[2,3-c]pyridin-4-yl)benzyl)methanesulfonamide], the half-maximal effective concentration (EC50) in experiment [1] is 0.98 µM; in experiment [2] it was 0.262 µM.

On to `Cn1cc(-c2ccc3[nH]nc(-c4cc5c(-c6cccnc6)cncc5[nH]4)c3n2)cn1` [Compound 556, 5-(1-Methyl-1H-pyrazol-4-yl)-3-(4-(pyridin-3-yl)-1H-pyrrolo[2,3-c]pyridin-2-yl)-1H-pyrazolo[4,3-b]pyridine], for which the EC50 in experiment [1] was 7.02 µM; in experiment [2], 3.02 µM.

Consider `c1ccc(-c2ccc3[nH]nc(-c4cc5ccncc5[nH]4)c3n2)nc1` [Compound 280, 5-(Pyridin-2-yl)-3-(1H-pyrrolo[2,3-c]pyridin-2-yl)-1H-pyrazolo[4,3-b]pyridine], for which, in experiment [1], the inhibition at 10 µM is 2.1% and the EC50 is above 10 µM. In addition, the EC50 in experiment [2] stood at 1.25 µM.

`CS(=O)(=O)NCc1cc(F)cc(-c2cncc3[nH]c(-c4n[nH]c5ccc(-c6cncnc6)nc45)cc23)c1` [Compound 503, N-(3-Fluoro-5-(2-(5-(pyrimidin-5-yl)-1H-pyrazolo[4,3-b]pyridin-3-yl)-1H-pyrrolo[2,3-c]pyridin-4-yl)benzyl)methane sulfonamide]: in experiment [1], the inhibition at 10 µM was determined as 46.4% and the EC50 was above 10 µM. Further, in experiment [2], the EC50 stood at 2.21 µM.

`CN(C)Cc1cncc(-c2ccc3[nH]nc(-c4cc5c(-c6ccccc6F)cncc5[nH]4)c3n2)c1` [Compound 69, 1-(5-(3-(4-(2-Fluorophenyl)-1H-pyrrolo[2,3-c]pyridin-2-yl)-1H-pyrazolo [4,3-b]pyridin-5-yl)pyridin-3-yl)-N,N-dimethylmethanamine]: the half-maximal effective concentration (EC50) in experiment [1] was determined as 1.51 µM; in experiment [2], 1.12 µM.

As for `O=C(Nc1cncc(-c2ccc3[nH]nc(-c4cc5ccncc5[nH]4)c3n2)c1)C1CCCC1` [Compound 274, N-(5-(3-(1H-Pyrrolo[2,3-c]pyridin-2-yl)-1H-pyrazolo[4,3-b]pyridin-5-yl)pyridin-3-yl)cyclopentanecarboxamide], the EC50 in experiment [1] amounted to 2.63 µM; in experiment [2], 0.656 µM.

In the case of `Fc1ccc(-c2cncc3[nH]c(-c4n[nH]c5ccc(-c6cncc(CN7CCC(F)(F)C7)c6)nc45)cc23)cc1` [Compound 54, 5-(5-((3,3-Difluoropyrrolidin-1-yl)methyl)pyridin-3-yl)-3-(4-(4-fluorophenyl)-1H-pyrrolo[2,3-c]pyridin-2-yl)-1H-pyrazolo[4,3-b]pyridine], the half-maximal effective concentration (EC50) in experiment [1] turned out to be 0.751 µM; in experiment [2] it was 0.37 µM.

For the compound `Cc1ccncc1-c1ccc2[nH]nc(-c3cc4c(-c5cccnc5)cncc4[nH]3)c2n1` [Compound 89, 5-(4-Methylpyridin-3-yl)-3-(4-(pyridin-3-yl)-1H-pyrrolo[2,3-c]pyridin-2-yl)-1H-pyrazolo[4,3-b]pyridine], the inhibition at 10 µM in experiment [1] came to 35.4%. The results for the EC50 in experiment [1] and in experiment [2] were above 10 µM and 1.54 µM, respectively.

Regarding `O=C(Cc1ccccc1)Nc1cncc(-c2ccc3[nH]nc(-c4cc5c(-c6ccoc6)cncc5[nH]4)c3n2)c1` [Compound 318, N-(5-(3-(4-(Furan-3-yl)-1H-pyrrolo[2,3-c]pyridin-2-yl)-1H-pyrazolo[4,3-b]pyridin-5-yl)pyridin-3-yl)-2-phenylacetamide], in experiment [1], the inhibition at 10 µM stood at 0% and the EC50 was above 10 µM. For the same compound, in experiment [2], the EC50 is above 10 µM and the inhibition at 10 µM was determined as 35.5%.

In experiment [1], `O=C(Nc1cncc(-c2ccc3[nH]nc(-c4cc5c(-c6ccc(F)cc6)cncc5[nH]4)c3n2)c1)c1ccccc1` [Compound 39, N-(5-(3-(4-(4-Fluorophenyl)-1H-pyrrolo[2,3-c]pyridin-2-yl)-1H-pyrazolo [4,3-b]pyridin-5-yl)pyridin-3-yl)benzamide] showed an EC50 of 3.43 µM. Also, in experiment [2], the EC50 was above 10 µM and the inhibition at 10 µM is 39.8%.

For `Cc1ccncc1-c1ccc2[nH]nc(-c3cc4c(-c5ccc(F)cc5)cncc4[nH]3)c2n1` [Compound 33, 3-(4-(4-Fluorophenyl)-1H-pyrrolo[2,3-c]pyridin-2-yl)-5-(4-methylpyridin-3-yl)-1H-pyrazolo[4,3-b]pyridine], in experiment [1], the inhibition at 10 µM was 21.5% and the EC50 is above 10 µM. Besides, a half-maximal response in experiment [2] (EC50) required 1.76 µM.
